One experiment has as its system keratinocytes. The experiment in a line: Rate of DNA synthesis (3H-thymidine incorporation) in keratinocytes. The following applies: 10 μM, 24 hours, low calcium (0.03 mM); 16-hour 3H-thymidine period. It is filed as cell-based, Human. The method, then:
The rate of DNA synthesis was determined by measuring the incorporation of ^3H-thymidine into cellular DNA after 16 hours of incubation with 2 μCi^3H-thymidine per mL of media (110 Ci/mmol methyl-1′,2′-^3H-thymidine (Amersham Laboratories, Arlington Heights, Ill. USA). The cells were then solubilized in 1N NaOH, and the radioactivity in the washed TCA precipitate was quantitated by scintillation spectroscopy.
Using the procedures set forth in the Materials and Methods section above, 25-hydroxycholesterol (10 μM) and 22(R)-hydroxycholesterol (10 μM, were compared with cholesterol (10 μM) and the vehicle alone control), with treatment for 24 hours under low calcium (0.03 mM) condition. The results are shown in the bar graph of FIG. 19.
In general terms: Dividing cells build labelled thymidine or BrdU into new DNA.

The next experiment deals with transglutaminase protein. The experiment in a line: Transglutaminase protein level in keratinocytes by Western blotting. Format: cell-based, Human. The settings on record: low calcium (0.03 mM), 24 hours. The method, then:
Protein concentration was assessed by protein electrophoresis and Western blotting. Cells were lysed is 2% SDS and the lysate sonicated. Protein determinations were made by use of a Bicinchoninic add protein assay (Pierce Chemical Company, Rockford, Ill. USA). Following protein determination, equal amounts at protein (50 μg) were separated by electrophoresis an 7.5% polyacrylamide gels and electroblotted onto polyvinylidene […] membranes (0.2-μ, obtained from Bio-Rad Laboratories Hercules, Calif., USA). Involucrin protein was detected by incubation over-night at 4° C. C. with a polyclonal rabbit anti-human involucrin antibody (1:1000 dilution). The involucrin-specific bands on the autoradiograms were quantitated by densitometry by densitometry. Transglutaminase protein expression was measured in a similar […], using stacking, sample and running buffers containing 4 M urea, and the gels following electrophoresis were washed in 4 M urea, 25 mM TRIS-HCl, pH 7.4, 7.5 mM NaCl, 0.1 mM dithiothreitol (DTT), and 2 mM ethylenediamine tetraacetic acid for 90 minutes prior to electoblotting, allowing the transglutaminase to be detected by antibody. Specific bands on the autoradiograms were quantified by densitometry. Levels of involucrin and transglutaminase protein were measured in keratinocytes incubated in low calcium (0.03 mM) and treated with the test compounds for 24 hours. The are shown in the bar graph of FIG. 17a, where the test compounds are compared with the vehicle alone (control) and cholesterol, using the same bar indications as in FIGS 14 through 16. […] Cholesterol had no effect.

The subject of experiment [1] is Skin explants from gestational day 17 rats. Put plainly: Light and electron microscopy of fetal rat skin explants (epidermal maturation). Format: cell-based. The settings on record: 300 μM, 48 hours. The method, then:
Samples for light microscopy were fixed in modified Karnovsky's solution, plastic-embedded, and 0.5 μm sections were stained with toluidine. Samples for electron microscopy were minced into 1 mm^3 pieces, fixed in modified Karnovsky's fixative, and processed. Sections were stained with uranyl acetate and lead citrate, post-fixed in ruthenium tetroxide, and examined using a Zeiss 10A electron microscope.
Explants incubated in various media woe examined by light microscopy. The incubation di included control medium (containing no activators) and various media individually containing 300 μM clofibrate, 100 μM juvenile hormone III, 300 μM oleic acid, 30 μM linoleic acid, 50 μM farnesol, and various concentrations of 9-cis-retinoic acid, all-trans-retinoic acid, and 1,25-dihydroxy vitamin D3.
Observations were then made of the ultrastructural maturation of the outer epidermis in explants that had been incubated in the various media and then post-fixed in ruthenium tetroxide. Media identical to those of the preceding paragraph were used, excluding the retinoic acid-containing and 1,25-dihydroxy vitamin D3-containing media.

In a further experiment the test system is Steroid Sulfatase. The experiment in a line: Steroid sulfatase activity in epidermis of treated fetal rat skin explants. The following applies: clofibrate (300 μM), juvenile hormone III (100 μ), mean of five ± SEM. It is filed as cell-based, rats. The method, then:
(§1) Epidermis was separated from dermis after incubation in 10 mM ethylenediamine tetraacetic acid (EDTA) in Ca^++- and Mg^++-free phosphate-buffered saline (PBS), pH 7.4, at 37° C. for 30-40 minutes. The tissues were then minced, and homogenized on ice (three times at 15 seconds each with a Polytron homogenizer, followed by sonication twice at ten seconds each at 35% power) in either PBS containing 0.1 mM phenylmethylsulfonyl fluoride (PMSF) and 0.1% Triton X-100 (for β-glucocerebrosidase) or in 10 mM Tris (PH 7.5) containing 0.15 M sucrose and 2 mM EDTA (for steroid sulfatase). β-Glucocerebrosidase activity was measured in the supernatant following centrifugation at 10,000×g for fifteen minutes at 4° C. Steroid sulfatase activity was measured in the microsomal fraction resulting from a […] centrifugation (10 minutes, 4° C.) followed by 60 minutes of 100,000×g ultracentrifugation at 4° C. Protein content was measured by conventional techniques.
Steroid sulfatase activity was measured by incubating 100 μg of microsomal protein in 0.1 M Tris containing 5.6 mM glucose (pH 7.4) with 15 μM, (^3H) dihydroepiandrosterone sulfate (DHEAS) (15 μCi) in a final volume of 1.1 mL The product, (^3H) DHEA, was extracted with benzene and an aliquot counted by scintillation spectrophotometry.
(§2) Skin explants from 17-day fetal rats were incubated for 24 or 48 hours in media individually containing clofibrate (300 μM) and juvenile hormone III […], and control media. Enzyme activity was measured and the results are presented in Table I as the mean values of five determinations±SEM (standard error of the mean). All p values are ≦0.005 compared with controls of the same time period.

The next experiment concerns β-Glucocerebrosidase. The experiment in a line: β-Glucocerebrosidase activity in epidermis of treated fetal rat skin explants. The following applies: clofibrate (300 μM), juvenile hormone III (100 μ), mean of five ± SEM. It is filed as cell-based, rats. The method, then: as §1
β-Glucocerebrosidase) activity was assayed using the synthetic substrate 4-methylumbelliferyl β-D-glucoside (4-MUG). The assays were performed in 5 mM sodium taurocholate in citrate-phosphate buffer (pH 5.6) with 0.5 mM 4-MUG for sixty minutes at 37° C., with a final assay volume of 100 μL, and protein concentration of 1-2 mg/mL. The reaction was terminated with 2 mL of carbonate-bicarbonate buffer (pH 10.5). The fluorescence was then measured at […] (excitation) and 450 λ (emission) and compared with a standard 4-methylumbelliferone (4-MU) curve.
as §2

The test system of experiment [2] is Preconfluent keratinocytes. Put plainly: Keratinocyte growth: DNA content (bis-benzimidazole fluorimetry). The following applies: mean of three samples. Format: cell-based, human. The method, then:
Preconfluent keratinocytes were treated for 48 hours with varying concentrations of clofibrate ranging from 0 (vehicle only) to 400 μM, in both low (0.03 mM) calcium and high (1.2 mM) calcium. The treated keratinocytes were harvested and sonicated, and the resulting homogenates were incubated with 1 μL/mL bis-benzimidazole for two hours in the dark. DNA content was quantified by reading the samples on a spectrofluorimeter. Each value in the table is a mean of three samples.

On to `C[C@H](CCCC(C)(C)O)[C@H]1CC[C@H]2[C@@H]3CC=C4C[C@@H](O)CC[C@]4(C)[C@H]3CC[C@]12C` [25-hydroxycholesterol], for which the “rate of DNA synthesis” value in the experiment on keratinocytes is recorded as 50 % of control. Also, the “TG'ase protein level relative to the control” value in the experiment with transglutaminase protein is on record as “approximately 1.6 fold”.
As to `CCOC(=O)C(C)(C)Oc1ccc(Cl)cc1` [clofibrate, 2-(4-chlorophenoxy)-2-methylpropanoic acid ethyl ester], the “light microscopy of the epidermis” value in experiment [1] was “had both a multi-layered stratum granulosum and a stratum corneum”. Besides, the “Steroid Sulfatase Activity” value with Steroid Sulfatase (24-Hour Incubation) is recorded as 13.90 ± 1.10 pmol/h/mg; with Steroid Sulfatase (48-Hour Incubation) it was 22.51 ± 2.60 pmol/h/mg. The results for the “β-Glucocerebrosidase Activity” value with β-Glucocerebrosidase (24-Hour Incubation) and in the experiment on β-Glucocerebrosidase (48-Hour Incubation) were 2.97 ± 0.30 nmol/min/mg and 5.35 ± 0.89 nmol/min/mg, respectively. In addition, the “DNA Content After 48 Hours” value in experiment [2] (Clofibrate 50 μM) is reported as 14.9 ± 1.5 μg/dish; in experiment [2] (Clofibrate 200 μM), 12.9 ± 1.1 μg/dish; in experiment [2] (Clofibrate 400 μM) it was 11.0 ± 1.3 μg/dish.
